pKi: −log10 of the molar value.
Legend:
[1] = molecular target: T1, 5-HT1E (Homo sapiens, UniProt P28566); test: PDSP primary binding, 5-HT1E; settings: n = 4, read-out: Inhibition (primary binding competition efficacy), 5-HT1E
T1 construct: purchased NIMH Psychoactive Drug Screening Program (PDSP)
Experimental: (§1) For experimental details, please refer to the Psychoactive Drug Screening Program (PDSP) web site http://pdsp.med.unc.edu/.
(§2) ^a The default concentration for primary binding experiments is 10 µM (n = 4). ^b Negative inhibition represents a stimulation of binding. ^c BZPR: Benzodiazepine Receptors (rat brain site). ^d DOR: Delta Opioid Receptor; KOR: Kappa Opioid Receptor; MOR: Mu Opioid Receptor. ^e DAT: Dopamine Transporter; NET: Norepinephrine Transporter; SERT: Serotonin Transporter. ^f NMDA: N-methyl-D-aspartate receptor.

[2] = molecular target: T2, NET: Norepinephrine Transporter (Homo sapiens, UniProt P23975); test: PDSP primary binding, NET; settings: n = 4, read-out: Inhibition (primary binding competition efficacy), NET
T2 construct: purchased NIMH Psychoactive Drug Screening Program (PDSP)
Experimental: as §1, §2

[3] = test system: Male C57 BL6/J mice
Experimental: Male C57 BL6/J (from Jackson Laboratories) mice were used for these studies. Upon receipt at 6 weeks of age, mice were single-housed in OptiMICE ventilated cages and acclimated to the colony room for 1 week prior to beginning of the dosing regimen at 7 weeks of age.
Mice were tested in NSF on day 29 of treatment. Eighteen hours prior to behavioral testing, all food was removed from the home cage. The NSF test was carried out during a 15-min period. The test chamber consists of a rectangular (14″ × 20″ × 6″) plastic box. The chamber floor is covered with bedding (∼0.5″). At the time of testing, animals were placed in the left front corner of the chamber and two food pellets (regular chow) were placed on a laminated white paper circle (13 cm in diameter) positioned in the center of the test chamber. The latency to eat is defined by the animal holding the food with one or both paws and taking a bite of the pellet and staying in the center eating for at least 5 sec. The mice were videotaped and tapes were scored by two trained observers blind to the treatments. […] Upon completion of NSF, about 50 60 min after the pretreatment, mice were decapitated and all animals from all treatment groups except from the imipramine group were processed for collection of trunk blood and whole-brain tissue. […]

[4] = molecular target: T3, V1A (Homo sapiens, UniProt P37288); test: PDSP primary binding, V1A; settings: n = 4, read-out: Inhibition (primary binding competition efficacy), V1A
T3 construct: purchased NIMH Psychoactive Drug Screening Program (PDSP)
Experimental: as §1, §2

[5] = molecular target: α7 nAChR; settings: ref Yu et al. [2012], cited from earlier work
[6] = molecular target: T4, human muscle-type α1β1γδ-nAChR (Homo sapiens, UniProt P02708+P07510+Q07001); test: 86Rb+ ion efflux assay, TE671/RD cells; assay type: cell-based; settings: 86Rb+ ion flux assay
T4 construct: TE671/RD naturally expresses human muscle-type α1*-nAChRs; endogenous in cells; host or cells: TE671/RD human clonal cell line
Text: Cell lines naturally or heterologously expressing specific, functional, human nAChR subtypes were used. The human clonal cell line TE671/RD naturally expresses human muscle-type α1*-nAChRs, containing α1, β1, γ, and δ subunits, with function detectable using ^86Rb^+ efflux assays. […] These cells heterologously express human nAChR chimeric (α6/3) subunits (wherein the extracellular, N-terminal, ligand-binding domain of the human nAChR α6 subunit replaces that domain in the nAChR α3 subunit) along with human β2 and β3 subunits. […] Cells were passaged once a week by splitting just-confluent cultures 1/300 (TE671/RD), 1/10 (SH-SY5Y), or 1/40 (transfected SH-EP1) in serum-supplemented medium to maintain log-phase growth.
One newer modification on these techniques involves low temperature incubation before assays to increase the surface expression of high sensitivity (HS) relative to low sensitivity (LS) α4β2 nAChRs and to enhance surface expression of (α6/3)β2β3-nAChRs. […] In brief, this allows us to determine efficacies of test compounds at LS and HS α4β2 nAChRs, respectively, as the ordinate values of the linear regressions at abscissa values of 0% and 100% of sazetidine-A efficacy.
Results are normalized to responses to a fully efficacious concentration of carbamylcholine (see Materials and Methods for details). […]

[7] = design: method as in Yuan et al. [2013]; settings: ref Yuan et al. [2013]; cited from earlier work
[8] = molecular target: T5, CB1 (Homo sapiens, UniProt P21554); test: PDSP primary binding, CB1; settings: n = 4, read-out: Inhibition (primary binding competition efficacy), CB1
T5 construct: purchased NIMH Psychoactive Drug Screening Program (PDSP)
Experimental: as §1, §2

[9] = molecular target: T6, D2 dopamine receptor (Homo sapiens, UniProt P14416); test: PDSP primary binding, D2; settings: n = 4, read-out: Inhibition (primary binding competition efficacy), D2
T6 construct: purchased NIMH Psychoactive Drug Screening Program (PDSP)
Experimental: as §1, §2

[10] = molecular target: T7, DOR: Delta Opioid Receptor (Homo sapiens, UniProt P41143); test: PDSP primary binding, DOR; settings: n = 4, read-out: Inhibition (primary binding competition efficacy), DOR
T7 construct: purchased NIMH Psychoactive Drug Screening Program (PDSP)
Experimental: as §1, §2

[11] = molecular target: T8, D1 dopamine receptor (Homo sapiens, UniProt P21728); test: PDSP primary binding, D1; settings: n = 4, read-out: Inhibition (primary binding competition efficacy), D1
T8 construct: purchased NIMH Psychoactive Drug Screening Program (PDSP)
Experimental: as §1, §2

[12] = Metabolic stability, liver microsomes, human; assay type: in vitro ADME; settings: 1.0E-06 M, 1 h

T6 sequence (P14416 whole entry): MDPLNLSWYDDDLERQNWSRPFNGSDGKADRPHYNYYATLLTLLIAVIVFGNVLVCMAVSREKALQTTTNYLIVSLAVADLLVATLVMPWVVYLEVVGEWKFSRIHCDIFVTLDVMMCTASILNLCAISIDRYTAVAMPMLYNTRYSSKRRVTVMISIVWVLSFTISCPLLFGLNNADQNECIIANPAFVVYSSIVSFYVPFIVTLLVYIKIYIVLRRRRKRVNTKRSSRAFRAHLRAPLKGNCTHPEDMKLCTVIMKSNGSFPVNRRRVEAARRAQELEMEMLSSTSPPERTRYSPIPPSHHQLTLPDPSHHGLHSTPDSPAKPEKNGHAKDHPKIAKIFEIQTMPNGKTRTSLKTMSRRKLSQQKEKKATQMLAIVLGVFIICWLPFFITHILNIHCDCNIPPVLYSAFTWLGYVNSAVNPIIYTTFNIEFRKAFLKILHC
T2 sequence (P23975 whole entry): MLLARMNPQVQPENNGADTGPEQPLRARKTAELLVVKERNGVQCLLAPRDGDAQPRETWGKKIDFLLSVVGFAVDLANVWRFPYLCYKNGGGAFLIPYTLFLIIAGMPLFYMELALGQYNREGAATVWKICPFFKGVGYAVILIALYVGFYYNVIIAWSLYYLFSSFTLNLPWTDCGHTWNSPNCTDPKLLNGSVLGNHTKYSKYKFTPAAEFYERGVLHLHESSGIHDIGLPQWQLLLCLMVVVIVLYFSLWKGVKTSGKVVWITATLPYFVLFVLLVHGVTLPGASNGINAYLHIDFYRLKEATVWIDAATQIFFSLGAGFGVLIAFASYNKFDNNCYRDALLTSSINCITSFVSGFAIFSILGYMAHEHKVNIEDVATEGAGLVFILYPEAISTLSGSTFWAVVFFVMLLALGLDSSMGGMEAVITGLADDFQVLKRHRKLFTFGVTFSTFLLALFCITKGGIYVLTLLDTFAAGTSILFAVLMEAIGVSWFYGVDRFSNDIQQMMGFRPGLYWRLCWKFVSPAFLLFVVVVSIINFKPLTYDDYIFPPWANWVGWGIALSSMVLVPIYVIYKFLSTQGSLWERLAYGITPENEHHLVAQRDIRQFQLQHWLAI
T7 sequence (P41143 whole entry): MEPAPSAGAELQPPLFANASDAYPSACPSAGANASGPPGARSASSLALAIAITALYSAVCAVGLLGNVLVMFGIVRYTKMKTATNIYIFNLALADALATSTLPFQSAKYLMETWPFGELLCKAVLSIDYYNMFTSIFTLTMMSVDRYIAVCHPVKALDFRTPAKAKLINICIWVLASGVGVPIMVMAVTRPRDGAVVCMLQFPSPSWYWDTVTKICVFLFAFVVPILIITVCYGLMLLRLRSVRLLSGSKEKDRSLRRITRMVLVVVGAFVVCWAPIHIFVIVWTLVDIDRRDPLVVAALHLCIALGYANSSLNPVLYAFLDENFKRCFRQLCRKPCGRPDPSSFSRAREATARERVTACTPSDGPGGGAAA
T1 sequence (P28566 whole entry): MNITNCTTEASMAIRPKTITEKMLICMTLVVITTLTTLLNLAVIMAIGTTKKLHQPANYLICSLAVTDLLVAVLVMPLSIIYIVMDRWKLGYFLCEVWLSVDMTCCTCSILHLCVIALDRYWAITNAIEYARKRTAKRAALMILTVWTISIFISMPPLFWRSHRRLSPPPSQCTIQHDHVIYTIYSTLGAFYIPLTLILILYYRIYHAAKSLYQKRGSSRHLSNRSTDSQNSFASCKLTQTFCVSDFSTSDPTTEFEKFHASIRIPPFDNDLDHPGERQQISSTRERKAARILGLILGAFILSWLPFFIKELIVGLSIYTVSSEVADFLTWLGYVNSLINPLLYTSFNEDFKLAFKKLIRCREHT
T8 sequence (P21728 whole entry): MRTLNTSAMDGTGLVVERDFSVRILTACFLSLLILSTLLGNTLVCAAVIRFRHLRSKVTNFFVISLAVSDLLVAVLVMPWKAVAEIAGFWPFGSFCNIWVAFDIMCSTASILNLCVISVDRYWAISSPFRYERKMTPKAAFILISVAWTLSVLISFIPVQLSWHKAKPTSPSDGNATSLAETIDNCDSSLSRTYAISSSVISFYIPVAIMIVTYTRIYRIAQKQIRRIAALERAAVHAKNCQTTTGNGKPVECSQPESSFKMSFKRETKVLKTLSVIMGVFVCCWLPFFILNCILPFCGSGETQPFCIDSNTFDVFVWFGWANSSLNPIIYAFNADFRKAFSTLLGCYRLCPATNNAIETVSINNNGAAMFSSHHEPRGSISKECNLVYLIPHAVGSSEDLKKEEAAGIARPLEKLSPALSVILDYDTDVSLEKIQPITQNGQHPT
T5 sequence (P21554 whole entry): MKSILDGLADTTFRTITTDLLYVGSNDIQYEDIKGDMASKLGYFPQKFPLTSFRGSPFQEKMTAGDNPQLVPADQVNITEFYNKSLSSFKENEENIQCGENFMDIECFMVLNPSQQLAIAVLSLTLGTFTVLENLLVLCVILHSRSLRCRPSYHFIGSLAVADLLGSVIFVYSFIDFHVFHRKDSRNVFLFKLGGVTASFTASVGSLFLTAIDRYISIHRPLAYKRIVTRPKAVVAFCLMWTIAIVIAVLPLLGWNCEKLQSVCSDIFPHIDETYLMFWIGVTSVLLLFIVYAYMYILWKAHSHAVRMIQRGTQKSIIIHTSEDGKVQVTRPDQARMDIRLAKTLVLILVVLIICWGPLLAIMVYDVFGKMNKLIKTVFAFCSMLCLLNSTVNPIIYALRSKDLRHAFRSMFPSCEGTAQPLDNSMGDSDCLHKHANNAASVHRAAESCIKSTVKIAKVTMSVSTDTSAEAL
T3 sequence (P37288 whole entry): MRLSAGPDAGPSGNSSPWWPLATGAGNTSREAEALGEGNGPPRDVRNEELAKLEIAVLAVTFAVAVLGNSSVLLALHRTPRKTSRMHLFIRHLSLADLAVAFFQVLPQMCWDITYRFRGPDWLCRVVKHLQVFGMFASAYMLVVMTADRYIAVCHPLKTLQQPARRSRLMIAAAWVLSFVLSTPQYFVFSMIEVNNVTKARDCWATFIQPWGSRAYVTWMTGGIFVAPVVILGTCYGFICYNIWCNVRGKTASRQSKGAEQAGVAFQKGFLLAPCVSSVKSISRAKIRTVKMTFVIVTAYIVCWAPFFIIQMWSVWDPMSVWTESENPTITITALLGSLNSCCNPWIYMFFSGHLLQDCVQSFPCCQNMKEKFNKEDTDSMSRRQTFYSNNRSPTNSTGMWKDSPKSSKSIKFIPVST

SMILES: OCCc1cc(-c2cncc(OC[C@@H]3CCN3)c2)on1 [LF-3-88, 2-[5-[5-(2(S)-azetidinylmethoxyl)-3-pyridyl]-3-isoxazolyl]ethanol]
- inhibition at 10 µM [1]: -3%
- inhibition at 10 µM [2]: 0.4%
- treatment effect on body weight ([3]; 4-week administration): did not find a significant treatment effect
- behavioral changes / tolerability in NSF paradigm ([3]; 28 days oral administration, 5 and 10 mg/kg): No obvious behavioral changes
- inhibition at 10 µM [4]: 24.7%
- Ki α7 ([5]; class symbol): NA ^4 (NA: not active, defined as < 50% binding in the primary assay at 10 μmol/L)
- pKi ([5]; read-out: Ki α7-nAChRs): < 5.00
- agonist or antagonist activity at muscle-type α1β1γδ-nAChRs [6]: no significant agonist or antagonist activity
- absorption and blood-brain barrier crossing in vivo [7]: absorbed rapidly and crossed the blood–brain barrier
- inhibition at 10 µM [8]: 5.1%
- inhibition at 10 µM [9]: 17.2%
- inhibition at 10 µM [10]: 5.9%
- inhibition at 10 µM [11]: 5.8%
- Remaining (metabolic stability) [12]: 89%
